Key:
Magnaporthe grisea = assay: whole plant or invertebrate; assay type: in vivo; details: Blast on rice; control value class
Alternaia brassicicola = assay: Test Example C: Alternaria sooty spot on cabbage; assay type: in vivo; details: Alternaria sooty spot on cabbage; control value class
Source text: Seeds of a test plant (cabbage variety: Shikidori) were planted and cultivated until the cotyledons extended.
<Control Value> Control value=100{1−(n/3)}

Puccinia recondita = assay: Test Example E: Brown rust on wheat; assay type: in vivo; details: Brown rust on wheat; control value class
Phytophthora infestans = assay: whole plant or invertebrate; assay type: in vivo; details: Late blight on tomato; control value class
Botrytis cinerea = assay: Test Example B: Gray mold on tomato; details: Gray mold on tomato; control value class
Plasmopara viticola = assay: Test Example G: Downy mildew on vine; details: Downy mildew on vine; 250 ppm spray, 7 to 10 days after inoculation
[1] = tested on: Colletotrichum orbiculare; assay: Test Example H: Anthracnose on cucumber; details: Anthracnose on cucumber; 250 ppm spray, 6 to 10 days after inoculation
[2] = tested on: Blumeria graminis f. sp. hordei; assay: Test Example D: Powdery mildew on barley; details: Powdery mildew on barley; control value class

CCn1c(-c2ccc(OC)cc2)c(C(C)(OC)C(C)C)cc(Cl)c1=O (stereo not shown) [compound 224]
Test A control value (Magnaporthe grisea): L (50% or less control value) | Test C control value (Alternaia brassicicola): L (50% or less control value) | Test E control value (Puccinia recondita): H (more than 50% control value) | Test F control value (Phytophthora infestans): L (50% or less control value) | Test B control value (Botrytis cinerea): H (more than 50% control value) | Test G control value (Plasmopara viticola): L (50% or less control value) | Test H control value [1]: L (50% or less control value) | Test D control value [2]: L (50% or less control value)

CCn1c(-c2ccc(Br)cc2Cl)c(CC(C)C)ccc1=O [compound 225]
Test A control value (Magnaporthe grisea): L (50% or less control value) | Test C control value (Alternaia brassicicola): H (more than 50% control value) | Test E control value (Puccinia recondita): H (more than 50% control value) | Test F control value (Phytophthora infestans): L (50% or less control value) | Test B control value (Botrytis cinerea): H (more than 50% control value) | Test G control value (Plasmopara viticola): L (50% or less control value) | Test H control value [1]: L (50% or less control value) | Test D control value [2]: H (more than 50% control value)

CCOc1cc(F)c(-c2c(C(C)(O)C(C)C)cc(Cl)c(=O)n2CC)c(F)c1 (stereo not shown) [compound 226]
Test A control value (Magnaporthe grisea): H (more than 50% control value) | Test C control value (Alternaia brassicicola): H (more than 50% control value) | Test E control value (Puccinia recondita): H (more than 50% control value) | Test F control value (Phytophthora infestans): L (50% or less control value) | Test B control value (Botrytis cinerea): H (more than 50% control value) | Test G control value (Plasmopara viticola): L (50% or less control value) | Test H control value [1]: H (more than 50% control value) | Test D control value [2]: L (50% or less control value)

CCOc1cc(F)c(-c2c(C(C)(OC)C(C)C)cc(Cl)c(=O)n2CC)c(F)c1 (stereo not shown) [compound 227]
Test A control value (Magnaporthe grisea): H (more than 50% control value) | Test C control value (Alternaia brassicicola): H (more than 50% control value) | Test E control value (Puccinia recondita): H (more than 50% control value) | Test F control value (Phytophthora infestans): L (50% or less control value) | Test B control value (Botrytis cinerea): H (more than 50% control value) | Test G control value (Plasmopara viticola): H (more than 50% control value) | Test H control value [1]: H (more than 50% control value) | Test D control value [2]: H (more than 50% control value)

CCOC(C)(c1cc(Cl)c(=O)n(CC)c1-c1c(F)cc(F)cc1F)C(C)C (stereo not shown) [compound 228]
Test A control value (Magnaporthe grisea): H (more than 50% control value) | Test C control value (Alternaia brassicicola): H (more than 50% control value) | Test E control value (Puccinia recondita): H (more than 50% control value) | Test F control value (Phytophthora infestans): L (50% or less control value) | Test B control value (Botrytis cinerea): H (more than 50% control value) | Test G control value (Plasmopara viticola): H (more than 50% control value) | Test H control value [1]: H (more than 50% control value) | Test D control value [2]: H (more than 50% control value)

CCCOC(C)(c1cc(Cl)c(=O)n(CC)c1-c1c(F)cc(F)cc1F)C(C)C (stereo not shown) [compound 229]
Test A control value (Magnaporthe grisea): H (more than 50% control value) | Test C control value (Alternaia brassicicola): H (more than 50% control value) | Test E control value (Puccinia recondita): H (more than 50% control value) | Test F control value (Phytophthora infestans): L (50% or less control value) | Test B control value (Botrytis cinerea): H (more than 50% control value) | Test G control value (Plasmopara viticola): H (more than 50% control value) | Test H control value [1]: H (more than 50% control value) | Test D control value [2]: H (more than 50% control value)

CCn1c(-c2c(F)cc(F)cc2F)c(C#N)cc(Cl)c1=O [compound 230]
Test A control value (Magnaporthe grisea): L (50% or less control value) | Test C control value (Alternaia brassicicola): L (50% or less control value) | Test E control value (Puccinia recondita): L (50% or less control value) | Test F control value (Phytophthora infestans): L (50% or less control value) | Test B control value (Botrytis cinerea): L (50% or less control value) | Test G control value (Plasmopara viticola): H (more than 50% control value) | Test H control value [1]: L (50% or less control value) | Test D control value [2]: L (50% or less control value)

CCn1c(-c2c(F)cc(F)cc2F)c(C(O)C2CCCC2)cc(Cl)c1=O (stereo not shown) [compound 231]
Test A control value (Magnaporthe grisea): H (more than 50% control value) | Test C control value (Alternaia brassicicola): H (more than 50% control value) | Test E control value (Puccinia recondita): H (more than 50% control value) | Test F control value (Phytophthora infestans): H (more than 50% control value) | Test B control value (Botrytis cinerea): H (more than 50% control value) | Test G control value (Plasmopara viticola): H (more than 50% control value) | Test H control value [1]: H (more than 50% control value) | Test D control value [2]: H (more than 50% control value)

CCn1c(-c2c(F)cc(F)cc2F)c(C(=O)C2CCCC2)cc(Cl)c1=O [compound 232]
Test A control value (Magnaporthe grisea): H (more than 50% control value) | Test C control value (Alternaia brassicicola): H (more than 50% control value) | Test E control value (Puccinia recondita): H (more than 50% control value) | Test F control value (Phytophthora infestans): L (50% or less control value) | Test B control value (Botrytis cinerea): H (more than 50% control value) | Test G control value (Plasmopara viticola): L (50% or less control value) | Test H control value [1]: L (50% or less control value) | Test D control value [2]: H (more than 50% control value)

CCn1c(-c2ccc(C#N)cc2)c(C(O)C(C)C)cc(Cl)c1=O (stereo not shown) [compound 233]
Test A control value (Magnaporthe grisea): L (50% or less control value) | Test C control value (Alternaia brassicicola): H (more than 50% control value) | Test E control value (Puccinia recondita): L (50% or less control value) | Test F control value (Phytophthora infestans): L (50% or less control value) | Test B control value (Botrytis cinerea): L (50% or less control value) | Test G control value (Plasmopara viticola): L (50% or less control value) | Test H control value [1]: L (50% or less control value) | Test D control value [2]: L (50% or less control value)

CCn1c(-c2ccc(C#N)cc2)c(C(=O)C(C)C)cc(Cl)c1=O [compound 234]
Test A control value (Magnaporthe grisea): L (50% or less control value) | Test C control value (Alternaia brassicicola): H (more than 50% control value) | Test E control value (Puccinia recondita): L (50% or less control value) | Test F control value (Phytophthora infestans): L (50% or less control value) | Test B control value (Botrytis cinerea): L (50% or less control value) | Test G control value (Plasmopara viticola): L (50% or less control value) | Test H control value [1]: L (50% or less control value) | Test D control value [2]: L (50% or less control value)

CCn1c(-c2ccc(C#N)cc2)c(C(C)(O)C(C)C)cc(Cl)c1=O (stereo not shown) [compound 235]
Test A control value (Magnaporthe grisea): L (50% or less control value) | Test C control value (Alternaia brassicicola): H (more than 50% control value) | Test E control value (Puccinia recondita): H (more than 50% control value) | Test F control value (Phytophthora infestans): L (50% or less control value) | Test B control value (Botrytis cinerea): L (50% or less control value) | Test G control value (Plasmopara viticola): L (50% or less control value) | Test H control value [1]: L (50% or less control value) | Test D control value [2]: L (50% or less control value)

CCn1c(-c2ccc(Br)cc2Cl)c(CC(C)C)cc(Cl)c1=O [compound 236]
Test A control value (Magnaporthe grisea): H (more than 50% control value) | Test C control value (Alternaia brassicicola): H (more than 50% control value) | Test E control value (Puccinia recondita): H (more than 50% control value) | Test F control value (Phytophthora infestans): L (50% or less control value) | Test B control value (Botrytis cinerea): H (more than 50% control value) | Test G control value (Plasmopara viticola): L (50% or less control value) | Test H control value [1]: L (50% or less control value) | Test D control value [2]: H (more than 50% control value)

CCn1c(-c2ccc(Br)cc2Cl)c(CC(C)C)cc(Br)c1=O [compound 237]
Test A control value (Magnaporthe grisea): L (50% or less control value) | Test C control value (Alternaia brassicicola): H (more than 50% control value) | Test E control value (Puccinia recondita): H (more than 50% control value) | Test F control value (Phytophthora infestans): L (50% or less control value) | Test B control value (Botrytis cinerea): H (more than 50% control value) | Test G control value (Plasmopara viticola): L (50% or less control value) | Test H control value [1]: L (50% or less control value) | Test D control value [2]: H (more than 50% control value)

CCn1c(-c2ccc(OC)cc2Cl)c(CC(C)C)ccc1=O [compound 238]
Test A control value (Magnaporthe grisea): H (more than 50% control value) | Test C control value (Alternaia brassicicola): H (more than 50% control value) | Test E control value (Puccinia recondita): H (more than 50% control value) | Test F control value (Phytophthora infestans): L (50% or less control value) | Test B control value (Botrytis cinerea): H (more than 50% control value) | Test G control value (Plasmopara viticola): H (more than 50% control value) | Test H control value [1]: H (more than 50% control value) | Test D control value [2]: H (more than 50% control value)

CCn1c(-c2ccc(OC)cc2Cl)c(CC(C)C)cc(Cl)c1=O [compound 239]
Test A control value (Magnaporthe grisea): H (more than 50% control value) | Test C control value (Alternaia brassicicola): H (more than 50% control value) | Test E control value (Puccinia recondita): H (more than 50% control value) | Test F control value (Phytophthora infestans): L (50% or less control value) | Test B control value (Botrytis cinerea): H (more than 50% control value) | Test G control value (Plasmopara viticola): L (50% or less control value) | Test H control value [1]: H (more than 50% control value) | Test D control value [2]: H (more than 50% control value)

CCn1c(-c2ccc(OC)cc2Cl)c(CC(C)C)cc(Br)c1=O [compound 240]
Test A control value (Magnaporthe grisea): H (more than 50% control value) | Test C control value (Alternaia brassicicola): H (more than 50% control value) | Test E control value (Puccinia recondita): H (more than 50% control value) | Test F control value (Phytophthora infestans): L (50% or less control value) | Test B control value (Botrytis cinerea): H (more than 50% control value) | Test G control value (Plasmopara viticola): H (more than 50% control value) | Test H control value [1]: H (more than 50% control value) | Test D control value [2]: H (more than 50% control value)

Source: patent publication US11147272B2, “Pyridone compounds and agricultural and horticultural fungicides comprising the same as active ingredients” (MITSUI CHEMICALS AGRO, INC., priority 2017, dated 2021)
